“Also recorded” adds a separate entry of the source.

The source of these data is patent US20120195929A1, “COMPOUNDS THAT MODULATE AUTOIMMUNITY AND METHODS OF USING THE SAME” (priority 2009, published 2012).

The subject of experiment [1] is BDC 2.5 T cell hybridoma. In words: BDC 2.5 T cell hybridoma response to chromogranin peptide mimotope presented by I-A^g7. The format is cell-based, mouse. Particulars: chromogranin peptide mimotope presented by I-A^g7 (FIG. 2d).
Experiment [2] deals with C57BL/6 splenocytes. Briefly: IL-10 ELISPOT, C57BL/6 splenocytes (I-A^b). It is filed as cell-based, C57BL/6 mice. Particulars: C57BL/6, I-A^b. An excerpt: (§1) Balb/c mice have I-A^d as their class II antigen presenting molecule. I-A^d is structurally similar to I-A^g7 of the NOD, with both strains having identical I-A alpha chains (17 amino acid differences in the I-A beta chains). C57BL/6 mice have I-A^b as their class II antigen presenting molecule. Both strains lack the basic pocket 9 in the peptide binding groove.

For experiment [3], the system named is NOD mice. In words: Diabetes prevention study in NOD mice. The following applies: 80 mg/kg/day i.p. 5 days per week from 4 to 21 weeks of age; p<0.001 vs PBS controls.
Experiment [4] relates to NOD mice splenocytes. In words: Ex vivo ELISPOT of splenocytes from NOD mice treated in vivo. Particulars: 80 mg/kg/day intraperitoneal for 5 days, 10 week old female NOD mice; vs PBS.
For experiment [5], the system named is Balb/c splenocytes. Briefly: IL-10 ELISPOT, Balb/c splenocytes (I-A^d). It is filed as cell-based, Balb/c mice.
Description: as §1

The test system of experiment [6] is I-A^g7 congenic splenocytes. Briefly: IL-10 ELISPOT, splenocytes from C57BL/6 mice congenic for I-A^g7. The format is cell-based. The following applies: C57BL/6 congenic for I-A^g7.
Description: as §1

The subject of experiment [7] is I-A^g7. Briefly: Direct binding of biotinylated insulin B:9-23 peptide to purified I-A^g7. Set-up: species or system mouse. Particulars: 500 nM; increasing biotinylated B:9-23; 2 h and 24 h.
The test system of experiment [8] is BDC 12-4.1 splenocytes. Briefly: ELISPOT and supernatant cytokines, transgenic BDC 12-4.1 Rag−/− mouse splenocytes. The format is cell-based. As for the experimental part:
Number of spots for each well is shown in the upper left hand corner.
The in vitro response of a monoclonal T cell population targeted to the B:9-23 peptide (rather than hybridomas) was evaluated by enzyme-linked immunospot (ELISPOT). […] Stimulation without the addition of B:9-23 peptide was unexpected and could be due to in vivo insulin peptide-MHC complexes present in the spleen. As shown in panel d of FIG. 3, both IL-10 (FIG. 3c) and IFN-γ (FIG. 3d) were quantified in the supernatant of stimulated splenocytes.

The subject of experiment [9] is T cell hybridoma 8-1.1α1. In words: T cell hybridoma 8-1.1α1 response to B:9-23 peptide presented by I-A^g7. It is filed as cell-based, mouse. From the text: B:9-23 peptide and small molecule binding to panel a) T cell hybridoma 8-1.1α1, panel b) hybridoma BDC 12-4.1, and panel c) hybridoma BDC 12-4.4. […] Dotted line is at the stimulation index of the B:9-23 peptide. TT=tetanus toxin (negative control peptide).
TT=tetanus toxin (negative control peptide). B:19(A)=substitution of the native cysteine for alanine at position 19 in B:9-23. […] Results are given as a stimulation index (SI) from triplicate cultures+s.e.m. The data are representative of at least three independent experiments. […] The figure is representative of three independent experiments.
The top 40 scoring compounds (shown in Table 1) were screened for their ability to alter anti-B:9-23 T cell responses to three different T cell hybridomas, all with the dominant conserved Vα5D-4 TCR element but different CDR3α, Jα, and TCRβ chains. […] The same assays evaluating hybridoma response were performed using 40 random compounds from the NCI/DTP repository.

Experiment [10] relates to NOD splenocytes. Briefly: IL-10 ELISPOT, in vitro culture of NOD splenocytes. Particulars: stimulated with glyphosine and B:9-23 peptide.

For the molecule `O=C(O)CN(CP(=O)(O)O)CP(=O)(O)O` [Glyphosine, N,N-bis(phosphonomethyl)glycine], the “peptide stimulation of BDC 2.5 hybridoma” value in experiment [1] is “did not enhance peptide stimulation”. Besides, the “IL-10 ELISPOT response to compound plus B:9-23 peptide” value in experiment [2] is listed as “failed to respond”; in experiment [5], “failed to respond”; in experiment [6] it was “responded”. Further, the development of diabetes result in experiment [3] was “Prevention of diabetes occurred as long as therapy was administered”. Also, the “ex vivo IFN-γ ELISPOT” value in experiment [4] is “no change in IFN-γ”. Besides, the “ex vivo IL-10 ELISPOT” value in experiment [4] was “upregulation of IL-10”. In addition, in experiment [7], the “B:9-23 peptide binding to empty I-A^g7” value was “directly enhance B:9-23 peptide binding”. In addition, the “IFN-γ positive cells (ELISPOT)” value in experiment [8] (in vitro, 500 nM) is “much smaller increase in IFN-γ positive cells”. Besides, the “IL-10 positive cells (ELISPOT)” value in experiment [8] (in vitro, 500 nM, with and without B:9-23 peptide) is “dramatically enhances IL-10 positive cells”. In [8] (with B:9-23 peptide, compared to peptide alone), the “IFN-γ levels in supernatant” value is given as “not increased; also recorded: decreases IFN-γ levels”. The “TCR stimulation with other modified B:9-23 insulin peptides” value in [9] (FIG. 2c) is “enhanced TCR stimulation”. The EC50 in [9] (Mus musculus, T-cell, with B:9-23 peptide (FIG. 2b), read-out: EC50 concentration, enhancement of TCR stimulation) turned out to be 70.6 nM. The “maximal stimulatory effect, fold greater than peptide alone” value in experiment [9] (at 500 nM) was “approximately 2.5 fold”. Besides, the “concentration of maximal stimulatory effect” value in [9] (with B:9-23 peptide) came to 500 nM. Besides, the “lowest concentration at which an effect was seen” value in experiment [9] (with B:9-23 peptide (FIG. 2b)) was 10 nM. Also, in [9] (with vs without B:9-23 peptide (FIG. 2b)), the “TCR stimulation, dependence on peptide” value is recorded as “modulated TCR stimulation only when peptide is present”. Moreover, in experiment [10], the “IL-10 producing cells (ELISPOT)” value was “three- to four-fold increase”.
